A word on the IC50: it is the concentration needed to halve the response being measured. The low end stands for higher potency, the high end for lower potency.

In one experiment the target is CK1δ (Homo sapiens (Human), UniProt P48730). The experiment is described as follows: CK1δ kinase assay (Caliper LABCHIP electrophoretic separation of fluoresceinated peptide substrate and product). In kind it is biochemical. The note with it: 200 pM enzyme, 50 μM ATP, 22 hours at room temperature. An outline of the steps:
(§1)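 IC50 values were obtained by non-linear regression from eleven-concentration titrations. The kinase reactions were incubated for 22 hours at room temperature before termination with 35 mM EDTA.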

The next experiment has as its target CK1ε (Homo sapiens (Human), UniProt P49674). The experiment is described as follows: CK1ε kinase assay (Caliper LABCHIP electrophoretic separation of fluoresceinated peptide substrate and product). The experiment is classed as biochemical. The following applies: 200 pM enzyme, 50 μM ATP, 22 hours at room temperature. A digest of the protocol: as §1

CK1δ, sequence (P48730 whole entry): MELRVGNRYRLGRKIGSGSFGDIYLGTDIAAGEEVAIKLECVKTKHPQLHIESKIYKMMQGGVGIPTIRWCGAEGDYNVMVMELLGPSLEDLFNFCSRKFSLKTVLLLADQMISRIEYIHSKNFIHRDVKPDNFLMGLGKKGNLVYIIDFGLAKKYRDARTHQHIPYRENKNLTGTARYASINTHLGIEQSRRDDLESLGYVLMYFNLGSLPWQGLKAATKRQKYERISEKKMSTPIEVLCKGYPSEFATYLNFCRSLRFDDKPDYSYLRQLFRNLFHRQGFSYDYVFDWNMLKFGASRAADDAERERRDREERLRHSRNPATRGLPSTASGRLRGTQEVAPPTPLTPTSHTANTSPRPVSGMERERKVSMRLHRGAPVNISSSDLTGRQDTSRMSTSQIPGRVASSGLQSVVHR
CK1ε, sequence (P49674 whole entry): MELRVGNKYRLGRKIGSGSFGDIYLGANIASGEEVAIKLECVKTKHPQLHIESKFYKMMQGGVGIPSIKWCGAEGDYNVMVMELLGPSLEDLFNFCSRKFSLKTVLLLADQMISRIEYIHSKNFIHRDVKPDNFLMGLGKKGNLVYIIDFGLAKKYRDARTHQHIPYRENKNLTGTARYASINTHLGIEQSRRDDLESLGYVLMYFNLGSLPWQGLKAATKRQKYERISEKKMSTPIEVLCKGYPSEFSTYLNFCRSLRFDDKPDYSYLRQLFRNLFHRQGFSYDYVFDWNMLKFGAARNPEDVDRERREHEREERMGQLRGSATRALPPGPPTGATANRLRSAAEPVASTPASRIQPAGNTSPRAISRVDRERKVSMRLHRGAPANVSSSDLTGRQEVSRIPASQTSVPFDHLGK

As to `O=C(Nc1cn2nc(-c3c(-c4ccc(F)cc4)ncn3C3CCN(C(=O)c4ccncc4)CC3)ccc2n1)c1ccnc(F)c1` [Compound 56, 2-fluoro-N-(6-(4-(4-fluorophenyl)-1-(1 isonicotinoylpiperidin-4-yl)-1H-imidazol-5-yl)imidazo[1,2-b]pyridazin-2-yl)isonicotinamide], the IC50 against CK1δ was found to be 0.13 nM; against CK1ε, 0.297 nM.

As to `Cc1noc(C)c1C(=O)N1CCC(n2cnc(-c3ccc(F)cc3)c2-c2ccc3nc(NC(=O)c4ccnc(F)c4)cn3n2)CC1` [Compound 57, N-(6-(1-(1-(3,5-dimethylisoxazole-4-carbonyl)piperidin-4-yl)-4-(4-fluorophenyl)-1H-imidazol-5-yl)imidazo[1,2-b]pyridazin-2-yl)-2-fluoroisonicotinamide], the figures for the half-inhibitory concentration (IC50) on CK1δ and at CK1ε were 0.321 nM and 3.42 nM, respectively.

In the case of `CS(=O)(=O)CC(=O)N1CCC(n2cnc(-c3ccc(F)cc3)c2-c2ccc3nc(NC(=O)c4ccnc(F)c4)cn3n2)CC1` [Compound 58, 2-fluoro-N-(6-(4-(4-fluorophenyl)-1-(1-(2-(methylsulfonyl)acetyl)piperidin-4-yl)-1H-imidazol-5-yl)imidazo[1,2-b]pyridazin-2-yl)isonicotinamide], the IC50 against CK1δ worked out at 0.233 nM; on CK1ε it was 0.457 nM.

For the compound `O=C(Nc1cn2nc(-c3c(-c4ccc(F)cc4)ncn3C3CCN(C(=O)CCC(F)(F)F)CC3)ccc2n1)c1ccnc(F)c1` [Compound 59, 2-fluoro-N-(6-(4-(4-fluorophenyl)-1-(1-(4,4,4-trifluorobutanoyl)piperidin-4-yl)-1H-imidazol-5-yl)imidazo[1,2-b]pyridazin-2-yl)isonicotinamide], the IC50 against CK1δ stood at 0.579 nM; against CK1ε, 1.97 nM.

For `Cn1ccc(C(=O)N2CCC(n3cnc(-c4ccc(F)cc4)c3-c3ccc4nc(NC(=O)c5ccnc(F)c5)cn4n3)CC2)n1` [Compound 60, 2-fluoro-N-(6-(4-(4-fluorophenyl)-1-(1-(1-methyl-1H-pyrazole-3-carbonyl)piperidin-4-yl)-1H-imidazol-5-yl)imidazo[1,2-b]pyridazin-2-yl)isonicotinamide], the IC50 against CK1δ stood at 0.213 nM; against CK1ε it was 0.545 nM.

As for `O=C(Nc1cn2nc(-c3c(-c4ccc(F)cc4)ncn3C3CCN(C(=O)CN4CCOCC4)CC3)ccc2n1)c1ccnc(F)c1` [Compound 61, 2-fluoro-N-(6-(4-(4-fluorophenyl)-1-(1-(2-morpholinoacetyl)piperidin-4-yl)-1H-imidazol-5-yl)imidazo[1,2-b]pyridazin-2-yl)isonicotinamide], the IC50 against CK1δ was determined as 0.186 nM; on CK1ε, 1.26 nM.

As for `Cc1oncc1C(=O)N1CCC(n2cnc(-c3ccc(F)cc3)c2-c2ccc3nc(NC(=O)c4ccnc(F)c4)cn3n2)CC1` [Compound 62, 2-fluoro-N-(6-(4-(4-fluorophenyl)-1-(1-(5-methylisoxazole-4-carbonyl)piperidin-4-yl)-1H-imidazol-5-yl)imidazo[1,2-b]pyridazin-2-yl)isonicotinamide], the results for the IC50 against CK1δ and against CK1ε were 0.313 nM and 0.256 nM, respectively.

For the compound `CC(C)(F)C(=O)N1CCC(n2cnc(-c3ccc(F)cc3)c2-c2ccc3nc(NC(=O)c4ccnc(F)c4)cn3n2)CC1` [Compound 64, 2-fluoro-N-(6-(1-(1-(2-fluoro-2-methylpropanoyl)piperidin-4-yl)-4-(4-fluorophenyl)-1H-imidazol-5-yl)imidazo[1,2-6]pyridazin-2-yl)isonicotinamide], the IC50 on CK1δ was 0.361 nM; against CK1ε, 0.798 nM.

Take `O=C(Nc1cn2nc(-c3c(-c4ccc(F)cc4)ncn3C3CCN(C(=O)C4CC4(F)F)CC3)ccc2n1)c1ccnc(F)c1` (stereo not shown) [Compound 65, N-(6-(1-(1-(2,2-difluorocyclopropanecarbonyl)piperidin-4-yl)-4-(4-fluorophenyl)-1H-imidazol-5-yl)imidazo[1,2-b]pyridazin-2-yl)-2-fluoroisonicotinamide]: the values for the IC50 at CK1δ and against CK1ε were 0.256 nM and 1.37 nM, respectively.

Regarding `CC1(C)CC1C(=O)N1CCC(n2cnc(-c3ccc(F)cc3)c2-c2ccc3nc(NC(=O)c4ccnc(F)c4)cn3n2)CC1` (stereo not shown) [Compound 66, N-(6-(1-(1-(2,2-dimethylcyclopropanecarbonyl)piperidin-4-yl)-4-(4-fluorophenyl)-1H-imidazol-5-yl)imidazo[1,2-6]pyridazin-2-yl)-2-fluoroisonicotinamide], the results for the IC50 on CK1δ and against CK1ε were 0.928 nM and 7.2 nM, respectively.

For the compound `O=C(Nc1cn2nc(-c3c(-c4ccc(F)cc4)ncn3C3CCN(C(=O)CCCl)CC3)ccc2n1)c1ccnc(F)c1` [Compound 70, N-(6-(1-(1-(3-chloropropanoyl)piperidin-4-yl)-4-(4-fluorophenyl)-1H-imidazol-5-yl)imidazo[1,2-b]pyridazin-2-yl)-2-fluoroisonicotinamide], the IC50 against CK1δ was 0.143 nM; against CK1ε it was 0.493 nM.

On to `N#CC1(C(=O)N2CCC(n3cnc(-c4ccc(F)cc4)c3-c3ccc4nc(NC(=O)c5ccnc(F)c5)cn4n3)CC2)CC1` [Compound 71, N-(6-(1-(1-(1-cyanocyclopropanecarbonyl)piperidin-4-yl)-4-(4-fluorophenyl)-1H-imidazol-5-yl)imidazo[1,2-b]pyridazin-2-yl)-2-fluoroisonicotinamide], for which the half-inhibitory concentration (IC50) amounted to 0.172 nM at CK1δ and 0.676 nM at CK1ε.

Regarding `O=C(Nc1cn2nc(-c3c(-c4ccc(F)cc4)ncn3C3CCN(C(=O)c4c[nH]cn4)CC3)ccc2n1)c1ccnc(F)c1` [Compound 72, N-(6-(1-(1-(1H-imidazole-4-carbonyl)piperidin-4-yl)-4-(4-fluorophenyl)-1H-imidazol-5-yl)imidazo(1,2-b]pyridazin-2-yl)-2-fluoroisonicotinamide], the values for the IC50 against CK1δ and on CK1ε were 0.183 nM and 0.559 nM, respectively.

Consider `O=C(Nc1cn2nc(-c3c(-c4ccc(F)cc4)ncn3C3CCN(C(=O)c4ccns4)CC3)ccc2n1)c1ccnc(F)c1` [Compound 73, 2-fluoro-N-(6-(4-(4-fluorophenyl)-1-(1-(isothiazole-5-carbonyl)piperidin-4-yl)-1H-imidazol-5-yl)imidazo[1,2-b]pyridazin-2-yl)isonicotinamide], for which the IC50 is 0.354 nM on CK1δ and 0.608 nM on CK1ε.

For the compound `O=C(Nc1cn2nc(-c3c(-c4ccc(F)cc4)ncn3C3CCN(S(=O)(=O)C4CC4)CC3)ccc2n1)c1ccnc(F)c1` [Compound 74, N-(6-(1-(1-(cyclopropylsulfonyl)piperidin-4-yl)-4-(4-fluorophenyl)-1H-imidazol-5-yl)imidazo[1,2-b]pyridazin-2-yl)-2-fluoroisonicotinamide], the IC50 on CK1δ is 0.675 nM; at CK1ε, 1.52 nM.

`CC(C)(C)COC(=O)N1CCC(n2cnc(-c3ccc(F)cc3)c2-c2ccc3nc(NC(=O)c4ccnc(F)c4)cn3n2)CC1` [Compound 75, neopentyl 4-(5-(2-(2-fluoroisonicotinamido)imidazo[1,2-b]pyridazin-6-yl)-4-(4-fluorophenyl)-1H-imidazol-1-yl)piperidine-1-carboxylate]: the IC50 came out at 1.4 nM against CK1δ and 3.49 nM on CK1ε.

Regarding `CC(C)OC(=O)N1CCC(n2cnc(-c3ccc(F)cc3)c2-c2ccc3nc(NC(=O)c4ccnc(F)c4)cn3n2)CC1` [Compound 76, isopropyl 4-(5-(2-(2-fluoroisonicotinamido)imidazo[1,2-b]pyridazin-6-yl)-4-(4-fluorophenyl)-1H-imidazol-1-yl)piperidine-1-carboxylate], the IC50 worked out at 0.251 nM on CK1δ and 1.8 nM on CK1ε.

In the case of `O=C(Nc1cn2nc(-c3c(-c4ccc(F)cc4)ncn3C3CCN(C(=O)OC4CCCC4)CC3)ccc2n1)c1ccnc(F)c1` [Compound 77, cyclopentyl 4-(5-(2-(2-fluoroisonicotinamido)imidazo[1,2-b]pyridazin-6-yl)-4-(4-fluorophenyl)-1H-imidazol-1-yl)piperidine-1-carboxylate], the IC50 is 0.744 nM against CK1δ and 14 nM on CK1ε.

As for `O=C(Nc1cn2nc(-c3c(-c4ccc(F)cc4)ncn3C3CCN(C(=O)OCC4CC4)CC3)ccc2n1)c1ccnc(F)c1` [Compound 78, cyclopropylmethyl 4-(5-(2-(2-fluoroisonicotinamido)imidazo[1,2-b]pyridazin-6-yl)-4-(4-fluorophenyl)-1H-imidazol-1-yl)piperidine-1-carboxylate], the half-maximal inhibitory concentration (IC50) at CK1δ was 0.295 nM; against CK1ε, 2.23 nM.

With `CC(C)COC(=O)N1CCC(n2cnc(-c3ccc(F)cc3)c2-c2ccc3nc(NC(=O)c4ccnc(F)c4)cn3n2)CC1` [Compound 79, isobutyl 4-(5-(2-(2-fluoroisonicotinamido)imidazo[1,2-b]pyridazin-6-yl)-4-(4-fluorophenyl)-1H-imidazol-1-yl)piperidine-1-carboxylate], the IC50 at CK1δ is 0.376 nM; against CK1ε, 1.91 nM.

Turning to `O=C(Nc1cn2nc(-c3c(-c4ccc(F)cc4)ncn3C3CCN(C(=O)OC4COC4)CC3)ccc2n1)c1ccnc(F)c1` [Compound 80, oxetan-3-yl 4-(5-(2-(2-fluoroisonicotinamido)imidazo[1,2-b]pyridazin-6-yl)-4-(4-fluorophenyl)-1H-imidazol-1-yl)piperidine-1-carboxylate], the IC50 against CK1δ was determined as 0.171 nM; on CK1ε, 0.809 nM.

Consider `O=C(Nc1cn2nc(-c3c(-c4ccc(F)cc4)ncn3C3CCN(C(=O)OC4CCOCC4)CC3)ccc2n1)c1ccnc(F)c1` [Compound 81, tetrahydro-2H-pyran-4-yl 4-(5-(2-(2-fluoroisonicotinamido)imidazo[1,2-b]pyridazin-6-yl)-4-(4-fluorophenyl)-1H-imidazol-1-yl)piperidine-1-carboxylate], for which the IC50 on CK1δ was found to be 0.311 nM; on CK1ε, 1.63 nM.

Turning to `O=C(Nc1cn2nc(-c3c(-c4ccc(F)cc4)ncn3C3CCN(C(=O)OCC4CC4(F)F)CC3)ccc2n1)c1ccnc(F)c1` (stereo not shown) [Compound 82, (2,2-difluorocyclopropyl)methyl 4-(5-(2-(2-fluoroisonicotinamido)imidazo[1,2-b]pyridazin-6-yl)-4-(4-fluorophenyl)-1H-imidazol-1-yl)piperidine-1-carboxylate], the IC50 on CK1δ stood at 0.247 nM; against CK1ε, 1.59 nM.

The record behind these values is US9556179B2 (BRISTOL-MYERS SQUIBB COMPANY, priority 2012, dated 2017).
